# From paper PMC6150298, “Natural Deep Eutectic Solvents (NADES) to Enhance Berberine Absorption: An In Vivo Pharmacokinetic Study” (Molecules : A Journal of Synthetic Chemistry and Natural …, 2017)
# Tests used:
# [1] = set-up: method as in PMID 26092760; conditions: rats, single oral administration of berberine 200 mg/kg; cited from earlier work
# [2] = Solubility of berberine in NADES and reference solvents (HPLC-DAD); assay type: physicochemical
# Method: Samples were placed on a magnetic stirrer (Stuart, Bibby Scientific Ltd., Stone, Staffordshire, UK) at 22 °C for 1 h, then centrifuged for 21 min at 13,000 rpm with a 5415 R centrifuge (Eppendorf, Hamburg, Germany). For quantitative measurement of solubilized berberine, a portion (100 μL) of the clear supernatant obtained after centrifugation was diluted 1:5 (v/v) in ethanol.
# For quantification, stock standard solution of berberine (100 μg/mL) was prepared dissolving the analytical standard in methanol using an ultrasonic bath. A calibration curve was obtained injecting standard solutions of berberine at different concentrations, namely 50, 25, 10, 5 and 1 μg/mL. The following calibration curve was obtained: […] (R^2 = 0.9997). The Limit of Quantification (LOQ) was 1 μg/mL.
# For HPLC-DAD analysis, an Agilent series 1260 HPLC instrument (Agilent, Cernusco Sul Naviglio, MI, Italy) equipped with a quaternary pump, a diode-array detector, an auto sampler and a column oven compartment was used. Analyses were performed on Eclipse XDB C8 column (5 μm, 4.6 mm × 150 mm, Agilent). The mobile phase was (A) water–formic acid (99:1 v/v) and (B) acetonitrile. A gradient program was used as follows: 0 → 11th min: A:B (90:10) → A:B (0:100) 11 → 12th min: A:B (0:100) → A:B (0:100) 12 → 12, 10th min: A:B (0:100) → A:B (90:10) 12, 10 → 14th min: A:B (90:10) → A:B (90:10). The mobile phase flow rate was 1 mL/min and the injection volume was 10 μL. The chromatogram was recorded at 350 nm and spectral data for all peaks were obtained in the range of 190–400 nm. The retention time of berberine under these analysis conditions was 6.16 min.
# [3] = human subjects, single oral dose of 500 mg of berberine hydrochloride, cited from earlier work; for time after which the plasma level reaches a plateau: plateau persisted up to 24 h
# rat = conditions: cited from earlier work
# mice = conditions: cited from earlier work
compound,measurement,setting,value
"COc1ccc2cc3[n+](cc2c1OC)CCc1cc2c(cc1-3)OCO2 [berberine, Berberine]",total recovery of native compounds,[1],22.83%
same,solubility at 1 h,"[2]; water, 22 °C",2100 µg/mL
same,plasma levels,[3],lower than 0.1 nM
same,time after which the plasma level reaches a plateau,[3],one
COc1cc2c(cc1O)CC[n+]1cc3c(OC)c(OC)ccc3cc1-2 [jatrorrhizine],plasma levels,[3],lower than 0.1 nM
same,time after which the plasma level reaches a plateau,[3],2 h
CC(O)C(=O)O (centres unmarked) [lactic acid],LD50,rat,3543 mg/kg
O=C(O)CC(O)C(=O)O (centres unmarked) [malic acid],LD50,rat,1600 mg/kg
NC(N)=O [urea],LD50,mice,"11,000 mg/kg"
Ethanol,Berberine Solubility at 22 °C,[2],2.75 ± 0.05 mg/mL
Water,Berberine Solubility at 22 °C,[2],2.10 ± 0.05 mg/mL
